Values after ≈ are worked out from the molar mass of the structure shown.
Assays:
[1] = Selectivity index, ratio of CC50 for African green monkey Vero cells to MIC for antimycobacterial activity against Mycobacterium tuberculosis H37Ra ATCC 25197; format: toxicity; details: read-out: Selectivity Index
[2] = tested on: Mycobacterium tuberculosis; assay: Antimycobacterial activity against Mycobacterium tuberculosis H37Rv ATCC 27294 assessed as inhibition of bacterial cell growth incubated for 7 days by resazurin microtiter assay; format: functional; details: H37Rv ATCC 27294, 168 h
[3] = tested on: Mycobacterium tuberculosis; assay: Antimycobacterial activity against Mycobacterium tuberculosis H37Ra ATCC 25197 assessed as inhibition of bacterial cell growth incubated for 7 days by resazurin microtiter assay; format: functional; details: H37Ra ATCC 25197, 168 h
[4] = Cytotoxicity in African green monkey Vero cells assessed as reduction in cell viability incubated for 72 hrs by MTT assay; format: cell-based; details: chlorocebus sabaeus

SMILES | selectivity ratio [1] | MIC [2] [µM] | MIC [3] [µM] | CC50 at 72 h [4] [mM]
COC(=O)/C=C1\Nc2ccccc2OC1=O | > 125 | 4.5 (≈ 0.986 µg/mL) | 18 (≈ 3.95 µg/mL) | > 2.28
COC(=O)/C=C1\Nc2cc3ccccc3cc2OC1=O |  |  | > 238 | 
O=C1Oc2ccccc2N/C1=C\C(=O)c1ccccc1 | > 62 |  | 15 (≈ 3.98 µg/mL) | > 0.942
COC(=O)/C=C1\Nc2cc(-c3ccccc3)ccc2OC1=O |  |  | 145 (≈ 42.8 µg/mL) | 
O=C1Oc2ccccc2N/C1=C\C(=O)c1c[nH]c2ccccc12 | > 250 | 3.3 (≈ 1 µg/mL) | 6.5 (≈ 1.98 µg/mL) | > 1.64
O=C(NNC(=O)c1ccncc1)C(=O)Nc1ccccc1O | 3380 | 3.3 (≈ 0.991 µg/mL) | 0.42 (≈ 0.126 µg/mL) | 1.41
O=C1Oc2ccccc2N/C1=C\C(=O)c1cccs1 | > 250 | 14.7 (≈ 3.99 µg/mL) | 7.3 (≈ 1.98 µg/mL) | > 1.84
O=C1Oc2ccccc2N/C1=C\C(=O)c1ccc(-c2ccccc2)cc1 | > 30 |  | 12 (≈ 4.1 µg/mL) | > 0.366
O=C(NNC(=O)c1ccncc1)C(=O)Nc1ccc(Cl)cc1O | 1560 | 3.1 (≈ 1.04 µg/mL) | 0.75 (≈ 0.251 µg/mL) | 1.17
Cc1ccc(C(=O)/C=C2\Nc3ccccc3OC2=O)cc1 | 115 |  | 14 (≈ 3.91 µg/mL) | 1.65
COC(=O)/C=C1\Nc2ccc(Cl)cc2OC1=O | 202 | 3.9 (≈ 0.989 µg/mL) | 7.9 (≈ 2 µg/mL) | 1.6
O=C(NNC(=O)c1ccncc1)C(=O)Nc1cc(Cl)ccc1O | 3320 | 3.1 (≈ 1.04 µg/mL) | 0.37 (≈ 0.124 µg/mL) | 1.2
CN1C(=O)/C(=C/c2ccccc2)Oc2ccccc21 |  |  | 127 (≈ 31.9 µg/mL) | 
O=C1Nc2ccccc2O/C1=C\c1ccccc1Cl |  |  | 238 (≈ 64.7 µg/mL) | 
O=C1Oc2ccccc2N/C1=C\C(=O)c1ccc(Cl)cc1 | 94 |  | 13 (≈ 3.9 µg/mL) | 1.25
COC(=O)/C=C1\Nc2ccccc2OC1O (stereo unspecified) |  |  | 289 (≈ 63.9 µg/mL) | 

SMILES | selectivity ratio [1] | MIC [2] [µM] | MIC [3] [µM] | CC50 at 72 h [4] [mM]
O=C1/C(=C/c2ccccc2)Oc2ccccc2N1Cc1ccccc1 |  |  | 196 (≈ 64.2 µg/mL) | 
COC(=O)/C=C1\Nc2cc(Cl)ccc2OC1=O | 26 | 31 (≈ 7.86 µg/mL) | 63 (≈ 16 µg/mL) | 1.63
O=C1Oc2ccccc2N/C1=C\C(=O)N1CCOCC1 | 155 | 7.3 (≈ 2 µg/mL) | 7.3 (≈ 2 µg/mL) | 1.14
Cc1ccccc1C(=O)/C=C1\Nc2ccccc2OC1=O | > 125 |  | 14 (≈ 3.91 µg/mL) | > 1.79
COC(=O)CC1Nc2ccccc2OC1=O (stereo unspecified) | 43 |  | 36 (≈ 7.96 µg/mL) | 1.55
NNC(=O)c1ccncc1 [ISONIAZID] | > 8000 | 1.8 (≈ 0.247 µg/mL) | 0.91 (≈ 0.125 µg/mL) | > 7.3
Cc1cccc(C(=O)/C=C2\Nc3ccccc3OC2=O)c1 | > 125 |  | 14 (≈ 3.91 µg/mL) | > 1.79
O=C1/C(=C/c2ccccc2Cl)Oc2ccccc2N1Cc1ccccc1 |  |  | 177 (≈ 64 µg/mL) | 
O=C1Nc2ccccc2O/C1=C\c1ccccc1 |  |  | 270 (≈ 64.1 µg/mL) | 
O=C1Oc2ccccc2N/C1=C\C(=O)c1ccncc1 | > 125 |  | 15 (≈ 3.99 µg/mL) | > 1.88
COC(=O)/C=C1\Nc2ncccc2OC1=O |  |  | > 217 | 
O=C1Oc2ccccc2N/C1=C\C(=O)c1cccc(Cl)c1 | 120 |  | 13 (≈ 3.9 µg/mL) | 1.61
O=C1Oc2ccccc2N/C1=C\C(=O)c1ccccc1Cl | 118 |  | 13 (≈ 3.9 µg/mL) | 1.57
CN1C(=O)/C(=C/c2ccccc2Cl)Oc2ccccc21 |  |  | 224 (≈ 64 µg/mL) | 
COC(=O)/C=C1/Oc2ccccc2NC1=O |  |  | 291 (≈ 63.8 µg/mL) | 

— ChEMBL document CHEMBL4433266, “Design, synthesis and antimycobacterial activity of benzoxazinone derivatives and open-ring analogues: Preliminary data and computational analysis” (Bioorg Med Chem Lett, 2019)
